Publication PMC5543288, “Psychostimulant Effect of the Synthetic Cannabinoid JWH-018 and AKB48: Behavioral, Neurochemical, and Dopamine Transporter Scan Imaging Studies in Mice” (Frontiers in Psychiatry, 2017)

Experiments:
[1] = tested on: [3H]-DA uptake in mouse striatal synaptosomes; experiment: [3H]-DA uptake in striatal synaptosomes; format: biochemical; conditions: GBR 12783 20 nM; JWH-018 and AKB48 100 nM and 1 µM
Method: (§1) On the day of the experiment, the animal was euthanized, the brain was rapidly removed, and both striata isolated. Thereafter, a crude synaptosomal (P2) fraction was prepared as follows: the striata were suspended in ice-cold buffered sucrose solution (0.32 M, pH 7.4) and homogenized. The homogenate was centrifuged (10 min, 2,100 g, 4°C) to remove nuclei and debris. The supernatant was further centrifuged at 13,500 g for 20 min at 4°C. For [^3H]-WIN 35,428 binding experiments, the P2 pellet was resuspended in 50 mM Tris–HCl, 100 mM NaCl, pH 7.4. For [^3H]-DA release experiments, the P2 pellet was then resuspended in 5 ml of Kreb’s solution (mM: NaCl 118; KCl 4.4; CaCl2 1.2; MgSO4 1.2; KH2PO4 1.2; NaHCO3 25; glucose 10), gassed 20 min with a mixture of 95% O2 plus 5% CO2 containing [^3H]-DA (50 nM; Perkin Elmer, Monza, Italy), disodium EDTA (0.03 mM), and ascorbic acid (0.05 mM; to prevent [^3H]-DA degradation).
After synaptosomal preparation, the suspension was maintained under a light and continuous oxygenation (95% O2, 5% CO2) for 20 min at 37°C. Thereafter, 0.5 ml aliquots of striatal synaptosomal suspension were prepared. […] After this period, the reaction was stopped by filtration through microporus nylon filters (0.45 µm, 13 mm; Analytical Technology, Brugherio, Italy). The filters were then washed with 1 ml ice-cold Kreb’s solution and the radioactivity accumulated on synaptosomes was extracted by eluting two times with 1 ml of warm NaOH (1 N) and then determined by liquid scintillation spectrometer. Non-specific uptake was measured by following the same procedure at 0°C.

mouse DAT = target: T1, mouse DAT (Mus musculus, UniProt Q61327); experiment: [3H]-WIN 35,428 competition binding, mouse striatal synaptosomes
T1 construct: DAT expressed in mouse striatal nerve terminals; from tissue; host or cells: mouse striatum, crude synaptosomal (P2) fraction
Method: Competition binding experiments were carried out incubating 8 nM [^3H]-WIN 35,428 (specific activity 84 Ci/mmol; Perkin Elmer, Boston, MA, USA) with CHO membranes transfected with human DAT (Perkin Elmer) or mouse striatal synaptosomes with different concentration of the examined compounds for 120 min at 4°C. Non-specific binding was determined in the presence of 1 µM GBR 12783. At the end of the incubation time, bound and free radioactivity were separated by filtering the assay mixture through Whatman GF/B glass fiber filters in a Brandel cell harvester (Brandel, Unterföhring, Germany). Filter bound radioactivity was counted in a Perkin Elmer 2810TR scintillation counter (Perkin Elmer).
as §1

[2] = tested on: spontaneous [3H]-DA efflux from mouse striatal synaptosomes; experiment: Spontaneous [3H]-DA release from striatal synaptosomes; format: biochemical; conditions: amphetamine 10 µM, cocaine 100 nM, JWH-018 and AKB48 100 nM and 1 µM
Method: as §1
After synaptosomal preparation, 0.5 ml aliquots of the suspension were distributed on microporous filters placed at the bottom of a set of parallel superfusion chambers maintained at 37°C and perfused with aerated (95% O2/5% CO2) Kreb’s solution (0.3 ml/min). After 30 min of superfusion to equilibrate the system, 5-min fractions were collected from the 30th to the 75th min (nine samples). […] At the end of the experiment, the radioactivity of the samples and filters was determined by liquid scintillation spectrometry (LS1800 Beckman). In view of the results obtained, in a separate set of experiments, [^3H]-DA uptake was also evaluated.

[3] = target: CD-1 murine CB1 receptors; conditions: ref [6]; read-out: Ki for CB1 receptors, CD-1 murine preparation; cited from earlier work
[4] = tested on: GABAA-mediated post-synaptic currents in VTA DA neurons; design: method as in PMID 26686391, PMID 25232109, PMID 28373077; conditions: rat VTA DA neurons, ex vivo; ref [26], [82], [83]; cited from earlier work
human DAT = target: T2, human DAT (Homo sapiens, UniProt Q01959); experiment: [3H]-WIN 35,428 competition binding, CHO membranes transfected with human DAT
T2 construct: purchased Perkin Elmer; host or cells: CHO cells transfected with human DAT (membrane preparation)
Method: At the end of the incubation time, bound and free radioactivity were separated by filtering the assay mixture through Whatman GF/B glass fiber filters in a Brandel cell harvester (Brandel, Unterföhring, Germany).

male CD-1 mice = experiment: Spontaneous locomotor activity (ANY-maze video tracking); format: in vivo, mouse
Method: Drugs were administered by intraperitoneal injection in a volume of 4 μl/g. The used doses of JWH-018 (0.3 and 1 mg/kg i.p.) and AKB48 (0.3 and 1 mg/kg i.p.) were chosen based on previous studies ([6], [7], [9], [10]).
The spontaneous locomotor activity was measured by using the ANY-maze video tracking system (Ugo Basile, application version 4.99 g Beta). The mouse was placed in a square plastic cage (60 cm × 60 cm) located in a sound- and light-attenuated room and motor activity was monitored for 240 min. Four mice were monitored in parallel in each experiment. Parameters measured were distance traveled (meter), total time in the peripheral zone (seconds), total time in the central zone (seconds), and immobility time (seconds; the animal was considered immobile when 95% of his image remained in the same place for at least 2 s). Parameters were analyzed every 15 min for a maximum of 240 min and to avoid mice olfactory cues, cages were carefully cleaned with a dilute (5%) ethanol solution and washed with water between animal trials. All experiments were performed between 9:00 a.m. and 1:00 p.m.

[5] = target: T3, dopamine transporter (DAT) in the mouse striatum (Mus musculus, UniProt Q61327); experiment: In vivo DaTSCAN SPECT-CT imaging, striatal [123I]-FP-CIT binding; conditions: i.p. 30 min before tracer: cocaine 20 mg/kg, amphetamine 10 mg/kg, JWH-018 1 mg/kg, AKB48 1 mg/kg
T3 construct: from tissue; host or cells: striatum of living CD-1 male mice (in vivo imaging)
T3 sequence (Q61327 whole entry): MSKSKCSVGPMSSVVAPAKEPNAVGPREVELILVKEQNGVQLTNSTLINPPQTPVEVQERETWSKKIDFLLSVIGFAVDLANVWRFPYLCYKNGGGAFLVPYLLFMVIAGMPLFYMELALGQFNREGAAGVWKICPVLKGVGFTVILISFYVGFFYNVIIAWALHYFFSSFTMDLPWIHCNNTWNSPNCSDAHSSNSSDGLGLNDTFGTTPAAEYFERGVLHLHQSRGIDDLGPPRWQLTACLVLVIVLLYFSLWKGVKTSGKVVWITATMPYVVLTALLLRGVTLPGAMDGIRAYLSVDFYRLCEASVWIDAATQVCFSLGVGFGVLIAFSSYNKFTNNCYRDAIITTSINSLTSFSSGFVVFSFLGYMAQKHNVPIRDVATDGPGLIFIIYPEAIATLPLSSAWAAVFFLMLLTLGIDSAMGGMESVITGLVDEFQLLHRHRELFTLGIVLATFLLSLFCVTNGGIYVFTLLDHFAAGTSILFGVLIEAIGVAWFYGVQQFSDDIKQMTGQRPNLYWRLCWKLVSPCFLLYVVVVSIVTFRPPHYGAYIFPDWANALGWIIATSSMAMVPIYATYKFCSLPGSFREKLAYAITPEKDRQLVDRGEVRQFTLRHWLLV
Method: 18 CD-1 male mice were divided into six different groups (three mice per treatment). […] A control group (i.e., naïve untreated mice) was also included in the study. Thirty minutes after drug administration, all mice were submitted to an intravenous injection with a solution of [^123I]-DaTSCAN (15–20 MBq, ≤200 µl). The body temperature of the animals was maintained at 37°C during the imaging sessions and under the cage, between imaging sessions, using a heating lamp. The SPECT–CT whole-body images were acquired at 1 h and 30 min after [^123I]-FP-CIT injection, with the initial tomographic acquisition starting nearly 15 min after the injection. Each SPECT-CT whole-body acquisition consisted of one bed positions (36 mm), 60 min, 128 views over 360 ([35]). The used energy window is 119–219 keV and the images were reconstructed by using the iterative EM-ML algorithm, including the collimator response. CT images have been acquired, using the digital X-ray imaging system integrated into the YAP(S)PET scanner ([36]). Acquisition parameters for X-ray projections were X-ray tube voltage = 35 keV, anode current = 1 mA, exposure = 1 s, 64 views over 360, and magnification factor = 1.2. Subtraction of dark noise contribution and flat field corrections was accomplished to obtain final images. The CT data were reconstructed by using the FDK algorithm. Amide software ([37]) has been used for images’ registration, visualization and analysis. The size of the ROIs was voxels (100 mm^3 volume), corresponding to entire striatum. These ROIs were used as a template. To avoid the variability of the slice selection and to gain statistical power, the entire striatum volume for the analysis was used. The template was positioned manually (without changing the size and form of the ROIs) on the SPECT images with the backing of anatomical information from LONI MAP 2003 MRI mouse atlas ([38], [39]). For analysis of striatal [^123I]-FP-CIT binding, two consecutive horizontal slices (total thickness approximately 4 mm) with the highest striatal binding were selected. The landmarks for positioning were the intra-orbital glands, striatum, and the borders of the brain. Striatal binding ratios are expressed as average activity per unit volume [Bq/mm^3], each value has been calculated as the ratio between the activity inside the ROI and the ROI volume, normalized for injected activity and for mouse brain weight.

T1 sequence (Q61327 whole entry): as above
T2 sequence (Q01959 whole entry): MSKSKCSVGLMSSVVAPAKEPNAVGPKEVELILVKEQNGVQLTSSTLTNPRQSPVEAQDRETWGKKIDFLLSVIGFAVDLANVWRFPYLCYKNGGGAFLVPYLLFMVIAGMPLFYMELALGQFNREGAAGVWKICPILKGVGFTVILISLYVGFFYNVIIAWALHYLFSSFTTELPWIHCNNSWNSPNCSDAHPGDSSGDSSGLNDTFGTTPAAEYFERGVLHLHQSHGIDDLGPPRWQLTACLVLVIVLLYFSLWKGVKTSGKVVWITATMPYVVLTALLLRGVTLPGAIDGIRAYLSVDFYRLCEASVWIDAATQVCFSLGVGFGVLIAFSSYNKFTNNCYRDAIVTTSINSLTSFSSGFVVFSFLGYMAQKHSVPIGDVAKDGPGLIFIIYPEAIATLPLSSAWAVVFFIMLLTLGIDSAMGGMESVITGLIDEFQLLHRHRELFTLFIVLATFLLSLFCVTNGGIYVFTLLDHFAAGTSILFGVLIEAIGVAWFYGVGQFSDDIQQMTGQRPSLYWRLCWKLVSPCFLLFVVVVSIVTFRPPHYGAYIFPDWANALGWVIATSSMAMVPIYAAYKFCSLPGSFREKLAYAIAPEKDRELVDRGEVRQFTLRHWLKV

SMILES: CCCCCn1cc(C(=O)c2cccc3ccccc23)c2ccccc21 [JWH-018, 1-pentyl-3-(1-naphthoyl)indole]
- effect on [3H]-DA uptake [1]: ineffective
- Ki (mouse DAT): > 10 µM
- spontaneous [3H]-DA efflux from striatal synaptosomes [2]: did not affect
- Ki [3]: 0.00582 µM
- GABAA-mediated post-synaptic currents [4]: decreases
- Ki (human DAT): 7.18 µM
- facilitation of spontaneous locomotion after pretreatment with AM 251 (male CD-1 mice; JWH-018 0.3 mg/kg, AKB48 1 mg/kg, AM 251 1 mg/kg i.p. 20 min before): prevented
- facilitation of spontaneous locomotion after coadministration of SCH23390 and haloperidol (male CD-1 mice; JWH-018 0.3 mg/kg, AKB48 1 mg/kg, SCH23390 0.1 mg/kg i.p. + haloperidol 0.05 mg/kg i.p. 20 min before): prevented
- time in the central zone versus peripheral area of the cage (male CD-1 mice; acute i.p.: JWH-018 0.3 mg/kg, AKB48 1 mg/kg): spent more time in the central zone
- immobility time (male CD-1 mice; acute i.p.: JWH-018 0.3 mg/kg, AKB48 1 mg/kg (30 min after administration), amphetamine 10 mg/kg, cocaine 20 mg/kg): reduced the immobility time
- total distance traveled (spontaneous locomotion) (male CD-1 mice; acute i.p.: JWH-018 0.3 mg/kg, AKB48 1 mg/kg, amphetamine 10 mg/kg, cocaine 20 mg/kg, monitored 240 min): induced long-lasting increases
- duration of the increase of spontaneous locomotion (male CD-1 mice; acute i.p.: JWH-018 0.3 mg/kg, AKB48 1 mg/kg, cocaine 20 mg/kg): 90 min
- reduction of [123I]-FP-CIT binding in the striatum [5]: ~ 39%
